In general, IC50 refers to the point on the concentration scale where inhibition reaches its midpoint.

The target of the assay is T1, IL-17A/A (Homo sapiens, UniProt Q16552).
T1 construct: purchased Genscript Z03228
T1 sequence (Q16552 24-155): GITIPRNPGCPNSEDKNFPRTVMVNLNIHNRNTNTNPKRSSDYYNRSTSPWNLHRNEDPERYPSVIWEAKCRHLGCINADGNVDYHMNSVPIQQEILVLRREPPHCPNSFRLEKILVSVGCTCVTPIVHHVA
In words: IL-17A/A HEK-Blue cell assay. The format is cell-based. Particulars: HEK-Blue IL-17A reporter cell line (HEK 293), IL-17A/A stimulation, 20 hours incubation, SEAP read at A630. The procedure, abridged: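 IC50 came from a 4-parameter fit of SEAP read at A630 (Quanti-Blue). Compound was titrated to a top final concentration of 10, 1 or 0.3 uM with 0.1% final DMSO and added just before IL-17A/A. Incubation lasted 20 hours in HEK293 cells engineered with IL-17RA, IL-17RC, Act1 and an NFκB-SEAP reporter.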
Consider `CCn1nccc1C(=O)N[C@H](c1cn2nc(CC3C[C@H](C(F)(F)F)CNC3=O)ccc2n1)C1CCCCCC1` (stereo partly drawn) [Compound 177, N—((S)-cycloheptyl(6-(((5S)-2-oxo-5-(trifluoromethyl)piperidin-3-yl)methyl)imidazo[1,2-b]pyridazin-2-yl)methyl)-1-ethyl-1H-pyrazole-5-carboxamide], for which the IC50 was < 100 nM.

`CCn1nccc1C(=O)N[C@H](c1cn2nc(CC3C[C@@H](C(F)(F)F)CNC3=O)ccc2n1)C12CC(C)(C1)C2` (stereo partly drawn) [Compound 178, 1-ethyl-N-((1S)-(3-methylbicyclo[1.1.1]pentan-1-yl)(6-(((5R)-2-oxo-5-(trifluoromethyl)piperidin-3-yl)methyl)imidazo[1,2-b]pyridazin-2-yl)methyl)-1H-pyrazole-5-carboxamide]: the half-maximal inhibitory concentration (IC50) is > 1000 nM.

Regarding `CCn1nccc1C(=O)N[C@H](c1cn2nc(CC3C[C@@H](C(F)(F)F)CNC3=O)ccc2n1)[C@H]1C[C@@H](C2CC2)C1` (stereo partly drawn) [Compound 179, N-((1S)-((1S,3R)-3-cyclopropylcyclobutyl)(6-(((5R)-2-oxo-5-(trifluoromethyl)piperidin-3-yl)methyl)imidazo[1,2-b]pyridazin-2-yl)methyl)-1-ethyl-1H-pyrazole-5-carboxamide], the IC50 was > 1000 nM.

Take `CCn1nccc1C(=O)N[C@H](c1cn2nc(CC3C[C@@H](C(F)(F)F)CNC3=O)c(C(C)C)cc2n1)C1CCC(F)(F)CC1` (stereo partly drawn) [Compound 180, N-((1S)-(4,4-difluorocyclohexyl)(7-isopropyl-6-(((5R)-2-oxo-5-(trifluoromethyl)piperidin-3-yl)methyl)imidazo[1,2-b]pyridazin-2-yl)methyl)-1-ethyl-1H-pyrazole-5-carboxamide]: the IC50 was < 100 nM.

Consider `CCn1nccc1C(=O)N[C@H](c1cn2nc(CC3C[C@@H](C(F)(F)F)CNC3=O)c(C(C)OC)cc2n1)C1CCC(F)(F)CC1` (stereo partly drawn) [Compound 183, N-((1S)-(4,4-difluorocyclohexyl)(7-(1-methoxyethyl)-6-(((5R)-2-oxo-5-(trifluoromethyl)piperidin-3-yl)methyl)imidazo[1,2-b]pyridazin-2-yl)methyl)-1-ethyl-1H-pyrazole-5-carboxamide], for which the half-inhibitory concentration (IC50) is < 100 nM.

Turning to `CCn1nccc1C(=O)N[C@H](c1cn2nc(CC3C[C@@H](C(F)(F)F)CNC3=O)c(S(C)(=O)=O)cc2n1)C1CCC(F)(F)CC1` (stereo partly drawn) [Compound 184, N-((1S)-(4,4-difluorocyclohexyl)(7-(methylsulfonyl)-6-(((5R)-2-oxo-5-(trifluoromethyl)piperidin-3-yl)methyl)imidazo[1,2-b]pyridazin-2-yl)methyl)-1-ethyl-1H-pyrazole-5-carboxamide], the half-maximal inhibitory concentration (IC50) was in the range of 100 to 1000 nM.

As to `CCn1nccc1C(=O)N[C@H](c1cn2nc(CC3C[C@@H](C(F)(F)F)CNC3=O)c(OC(C)C)cc2n1)C1CCC(F)(F)CC1` (stereo partly drawn) [Compound 185, N-((1S)-(4,4-difluorocyclohexyl)(7-isopropoxy-6-(((5R)-2-oxo-5-(trifluoromethyl)piperidin-3-yl)methyl)imidazo[1,2-b]pyridazin-2-yl)methyl)-1-ethyl-1H-pyrazole-5-carboxamide], the half-maximal inhibitory concentration (IC50) was < 100 nM.

As for `CCn1nccc1C(=O)N[C@H](c1cn2nc(CC3C[C@@H](C(F)(F)F)CNC3=O)c(C(C)(C)O)cc2n1)C1CCC(F)(F)CC1` (stereo partly drawn) [Compound 186, N-((1S)-(4,4-difluorocyclohexyl)(7-(2-hydroxypropan-2-yl)-6-(((5R)-2-oxo-5-(trifluoromethyl)piperidin-3-yl)methyl)imidazo[1,2-b]pyridazin-2-yl)methyl)-1-ethyl-1H-pyrazole-5-carboxamide], the IC50 was < 100 nM.

For the compound `CCn1nccc1C(=O)N[C@H](c1cn2nc(CC3C[C@@H](C(F)(F)F)CNC3=O)c(C(=O)O)cc2n1)C1CCC(F)(F)CC1` (stereo partly drawn) [Compound 187, 2-((S)-(4,4-difluorocyclohexyl)(1-ethyl-1H-pyrazole-5-carboxamido)methyl)-6-(((5R)-2-oxo-5-(trifluoromethyl)piperidin-3-yl)methyl)imidazo[1,2-b]pyridazine-7-carboxylic acid], the concentration for half-maximal inhibition (IC50) lay in the range of 100 to 1000 nM.

As for `CCn1nccc1C(=O)N[C@H](c1cn2nc(CC3C[C@@H](C(F)(F)F)CNC3=O)ccc2n1)C1CCCCC1` (stereo partly drawn) [Compound 191, N-((1S)-cyclohexyl(6-(((5R)-2-oxo-5-(trifluoromethyl)piperidin-3-yl)methyl)imidazo[1,2-b]pyridazin-2-yl)methyl)-1-ethyl-1H-pyrazole-5-carboxamide], the IC50 lay within 100 to 1000 nM.

Regarding `CCn1nccc1C(=O)N[C@H](c1cn2nc(CC3C[C@@H](C(F)(F)F)CNC3=O)ccc2n1)C1CC2(CC2)C1` (stereo partly drawn) [Compound 192, 1-ethyl-N—((1S)-(6-(((5R)-2-oxo-5-(trifluoromethyl)piperidin-3-yl)methyl)imidazo[1,2-b]pyridazin-2-yl)(spiro[2.3]hexan-5-yl)methyl)-1H-pyrazole-5-carboxamide], the IC50 is > 1000 nM.

`CCn1nccc1C(=O)N[C@H](c1cn2nc(CC3C[C@@H](C(F)(F)F)CNC3=O)ccc2n1)C1CCC(F)(F)CC1` (stereo partly drawn) [Compound 193, N-((1S)-(4,4-difluorocyclohexyl)(6-(((5R)-2-oxo-5-(trifluoromethyl)piperidin-3-yl)methyl)imidazo[1,2-b]pyridazin-2-yl)methyl)-1-ethyl-1H-pyrazole-5-carboxamide]: the half-inhibitory concentration (IC50) is > 1000 nM.

For the compound `CCn1nccc1C(=O)N[C@H](c1cn2nc(CC3C[C@@H](C(F)(F)F)CNC3=O)ccc2n1)[C@@H]1CCCC(F)(F)C1` (stereo partly drawn) [Compound 194, N-((1S)—((R)-3,3-difluorocyclohexyl)(6-(((5R)-2-oxo-5-(trifluoromethyl)piperidin-3-yl)methyl)imidazo[1,2-b]pyridazin-2-yl)methyl)-1-ethyl-1H-pyrazole-5-carboxamide], the half-inhibitory concentration (IC50) was > 1000 nM.

Regarding `CCn1nccc1C(=O)N[C@H](c1cn2ncc(CC3CCNC3=O)cc2n1)C1CCCCCC1` (some centres unmarked) [Compound 203, N-((1 S)-cycloheptyl(7-((2-oxopyrrolidin-3-yl)methyl)imidazo[1,2-b]pyridazin-2-yl)methyl)-1-ethyl-1H-pyrazole-5-carboxamide], the half-maximal inhibitory concentration (IC50) was > 1000 nM.
